Reference: PubChem BioAssay (NCI)
Where “and” joins values, the source holds several entries; their conditions need not be identical. Equal entries are not always repeated.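 Tested at 5 concentrations; 48 h exposure; 96-well plates; endpoints linearly interpolated, else capped at highest concentration. GI50 marks 50% less growth. TGI marks complete inhibition of growth.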

Assays:
Assay in all cases: NCI tumour cell line growth inhibition, 48 h
COLO 205 colon = tested on: COLO 205 colon
NCI-H522 lung = tested on: NCI-H522 lung
HCT-116 colon = tested on: HCT-116 colon
HS 578T breast = tested on: HS 578T breast
NCI/ADR-RES ovarian = tested on: NCI/ADR-RES ovarian
SK-MEL-5 melanoma = tested on: SK-MEL-5 melanoma
NCI-H226 lung = tested on: NCI-H226 lung
HT29 colon = tested on: HT29 colon
M14 melanoma = tested on: M14 melanoma
SN12C renal = tested on: SN12C renal

| Compound | GI50 (COLO 205 colon) | TGI (COLO 205 colon) | GI50 (NCI-H522 lung) | TGI (NCI-H522 lung) | GI50 (HCT-116 colon) | TGI (HCT-116 colon) | GI50 (HS 578T breast) | TGI (HS 578T breast) | GI50 (NCI/ADR-RES ovarian) | TGI (NCI/ADR-RES ovarian) | GI50 (SK-MEL-5 melanoma) | TGI (SK-MEL-5 melanoma) | GI50 (NCI-H226 lung) | TGI (NCI-H226 lung) | GI50 (HT29 colon) | TGI (HT29 colon) | GI50 (M14 melanoma) | TGI (M14 melanoma) | GI50 (SN12C renal) | TGI (SN12C renal) |
| --- | --- | --- | --- | --- | --- | --- | --- | --- | --- | --- | --- | --- | --- | --- | --- | --- | --- | --- | --- | --- |
| Cc1ccc(Cl)cc1NC(=O)c1sc2nc3c(cc2c1N)C(=O)CCC3 | 4.41 µM | > 100 µM | 2.17 µM | 4.95 µM | 5.97 µM | > 100 µM | 2.34 µM | > 100 µM | 5.28 µM | > 100 µM | 3.48 µM | > 100 µM | > 100 µM | > 100 µM | 3.54 µM | > 100 µM | 6.31 µM | > 100 µM | – | – |
| COC(=O)CC[C@H](Cc1ccccc1)NC(=O)c1csc([C@@H](C[C@H](C(C)C)N(C)C(=O)[C@@H](NC(=O)[C@H]2CCCCN2C)C(C)C)OC(C)=O)n1 | – | – | – | – | < 0.0025 µM | > 25 µM | < 0.0025 µM | > 25 µM | 0.0714 µM | > 25 µM | < 0.0025 µM | 0.0984 µM | – | – | < 0.0025 µM | > 25 µM | < 0.0025 µM | > 25 µM | < 0.0025 µM | > 25 µM |
| Cc1cc(Cl)ccc1NC(=O)CC1SC(=Nc2ccccc2Cl)NC1=O (configuration not stated) | – | 47.1 µM | – | 80.4 µM | – | > 100 µM | – | – | – | – | – | > 100 µM | – | > 100 µM | – | > 100 µM | – | > 100 µM | – | > 100 µM |
| Cn1cc2ccccc2c1-c1nc(F)nc(OCC(=O)[C@H]2CCC3[C@@H]4CCC5=CC(=O)CC[C@]5(C)C4[C@@H](O)C[C@@]32C)n1 (some centres not stated) | – | 40.1 µM | – | 31.2 µM | – | 27 µM | – | – | – | – | – | 44.9 µM | – | 36.5 µM | – | 42.7 µM | – | 44.7 µM | – | 30.8 µM |
| O=Cc1c(O)c(C(=O)Nc2ccc3[nH]c(=O)[nH]c3c2)cc2ccccc12 | – | > 100 µM | – | > 100 µM | – | > 100 µM | – | – | – | – | – | > 100 µM | – | > 100 µM | – | > 100 µM | – | > 100 µM | – | > 100 µM |
| Cc1cccc(C)c1NC(=O)C(=O)Nn1c(NN)nc2ccccc2c1=O | – | > 100 µM | – | > 100 µM | – | > 100 µM | – | – | – | – | – | > 100 µM | – | > 100 µM | – | > 100 µM | – | > 100 µM | – | > 100 µM |
| N#CC1CC2(CCN1C(=O)c1ccccc1)OCCO2 (configuration not stated) | – | > 100 µM | – | 78.2 µM | – | > 100 µM | – | – | – | – | – | > 100 µM | – | > 100 µM | – | > 100 µM | – | > 100 µM | – | > 100 µM |
| Cc1ccc(O)c(NC(=O)c2ccc(CNc3ccnc(C(F)(F)F)c3)cc2)c1 | 5.57 µM | 20.1 µM | – | – | 13.7 µM | 37.4 µM | 11.2 µM | 42.8 µM | 4.68 µM | 37.8 µM | 4.07 µM | 14.7 µM | 4.52 µM | 38.8 µM | 23.1 µM | > 100 µM | 5 µM | 24.2 µM | 4.23 µM | > 100 µM |
| Cn1cc(C(=O)C[n+]2ccccc2)c2ccccc21 | – | > 100 µM | – | > 100 µM | – | > 100 µM | – | – | – | – | – | > 100 µM | – | 59.1 µM | – | > 100 µM | – | > 100 µM | – | > 100 µM |
| CN(C)c1ccc(/C=c2\sc3nc4ccccc4n3c2=O)cc1 | – | > 100 µM | – | > 100 µM | – | > 100 µM | – | – | – | – | – | > 100 µM | – | > 100 µM | – | > 100 µM | – | > 100 µM | – | > 100 µM |
| O=C1C(=Cc2c(O)cc(O)cc2O)C(=O)c2ccccc21 | – | > 56 µM | – | > 60.3 µM | – | > 53.7 µM | – | – | – | – | – | > 100 µM | – | > 63 µM | – | > 56.4 µM | – | > 57.2 µM | – | 37.6 µM |
| S=P(N1CC1)(N1CC1)N1CC1 | – | – | 15 µM and 125 µM | 33.6 µM and 273 µM and 329 µM | 21.2 µM and 171 µM | 46.1 µM and 317 µM and 367 µM | 534 µM | 913 µM and 962 µM | 53.8 µM | 511 µM and 225 µM | – | – | – | – | – | 66.7 µM and 500 µM and 617 µM | – | – | – | – |
| O=C1c2ccccc2-c2c1c1ccccc1c(=O)n2CCCn1ccnc1 | 5.41 µM | > 100 µM | 2.14 µM | > 100 µM | 1.4 µM | 13.8 µM | 7.92 µM | 94.7 µM | 1.81 µM | 6.09 µM | – | – | 1.35 µM | 3.04 µM | 1.22 µM | 6.27 µM | 5.71 µM | > 100 µM | 1.66 µM | 4.31 µM |
| CC1OC(n2cc(F)c(=O)[nH]c2=O)C=CC1=O (configuration not stated) | – | 89.1 µM | – | 23.2 µM | – | 29.8 µM | – | – | – | – | – | 31.4 µM | – | 66.4 µM | – | 49.3 µM | – | 34.1 µM | – | 31.8 µM |
| COc1cccc(/C=N/C(/N=C/c2cccc(OC)c2O)c2cccc(OC)c2O)c1O | – | > 100 µM | – | 49.2 µM | – | > 100 µM | – | 61.5 µM | – | 85.2 µM | – | 35.1 µM | – | – | – | > 100 µM | – | 48.2 µM | – | 77.6 µM |
| CCOC(=O)c1c2c(n3ccccc13)C(=O)c1ncccc1C2=O | 1.65 µM | 4.93 µM | 0.419 µM | 3.72 µM | 0.0424 µM | 2.33 µM | – | – | 0.0348 µM | 3.09 µM | 0.142 µM | 1.51 µM | 0.0544 µM | 3.5 µM | 1.63 µM | 5.68 µM | 0.0354 µM | 2.94 µM | 0.0348 µM | 5.85 µM |
| CC(=O)OCC1OC(n2c(-c3ccc(C)cc3)cc(-c3ccccc3)c(C#N)c2=O)C(OC(C)=O)C(OC(C)=O)C1OC(C)=O (configuration not stated) | – | > 100 µM | – | > 100 µM | – | > 100 µM | – | – | – | – | – | > 100 µM | – | > 100 µM | – | > 100 µM | – | > 100 µM | – | > 100 µM |
| CC(C)(c1ccccc1)c1ccc(OC#N)cc1 | – | > 56.5 µM | – | 24.4 µM | – | > 65.7 µM | – | – | – | – | – | > 100 µM | – | > 100 µM | – | > 100 µM | – | > 100 µM | – | > 100 µM |
| COC(=O)/C=C/c1cc2c(cc1-c1c(C(=O)O)cc(OC)c(OC)c1OC)OCO2 | – | > 10 µM | – | > 10 µM | – | > 10 µM | – | > 10 µM | – | > 10 µM | – | > 10 µM | – | – | – | > 10 µM | – | > 10 µM | – | > 10 µM |
| CCN1CCN(CC(=O)N2c3cccc4cccc(c34)N(C(=O)CN3CCN(CC)CC3)C2c2cn(-c3ccccc3)nc2-c2cccc([N+](=O)[O-])c2)CC1 | 1.72 µM | 3.39 µM | – | – | 1.27 µM | 2.83 µM | 1.81 µM | 4.17 µM | 1.98 µM | 4.16 µM | 1.75 µM | 3.21 µM | – | – | 1.74 µM | 3.84 µM | 1.69 µM | 3.46 µM | 1.49 µM | 3.01 µM |
